Measured values as given in ChEMBL document CHEMBL4382283, “Discovery of a GPR40 Superagonist: The Impact of Aryl Propionic Acid α-Fluorination” (ACS Med Chem Lett, 2019).
Activity calls are given as the source filed them. The calls are words filed in the database; no cut-off is given here.

Experiments:
[1] = target: Free fatty acid receptor 1 (Rattus norvegicus, UniProt Q8K3T4); experiment: Agonist activity at rat GPR40 expressed in HEK293 cells assessed as induction of intracellular calcium mobilization by Fluo-8 dye based FLIPR assay; assay type: functional, cell-based
Free fatty acid receptor 1 (Rattus norvegicus, UniProt Q8K3T4), sequence (Q8K3T4 whole entry): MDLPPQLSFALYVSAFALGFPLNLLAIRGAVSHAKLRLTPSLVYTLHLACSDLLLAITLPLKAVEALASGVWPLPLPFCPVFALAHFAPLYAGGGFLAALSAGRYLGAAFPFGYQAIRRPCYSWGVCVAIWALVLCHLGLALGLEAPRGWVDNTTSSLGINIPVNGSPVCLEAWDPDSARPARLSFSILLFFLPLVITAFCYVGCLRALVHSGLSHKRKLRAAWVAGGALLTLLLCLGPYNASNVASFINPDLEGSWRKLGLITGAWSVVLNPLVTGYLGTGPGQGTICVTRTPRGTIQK

[2] = target: T1, Free fatty acid receptor 1 (Homo sapiens, UniProt O14842); experiment: Agonist activity at GPR40 in human islets assessed as induction of glucose-stimulated insulin secretion at 10 uM after 1 hr by HTRF assay relative to (S)-3-Cyclopropyl-3-(3-(((1r,4S)-4-(2-fluoro-5-methoxyphenyl)cyclohexyl)methoxy)phenyl)propanoic acid
T1 sequence (O14842 whole entry): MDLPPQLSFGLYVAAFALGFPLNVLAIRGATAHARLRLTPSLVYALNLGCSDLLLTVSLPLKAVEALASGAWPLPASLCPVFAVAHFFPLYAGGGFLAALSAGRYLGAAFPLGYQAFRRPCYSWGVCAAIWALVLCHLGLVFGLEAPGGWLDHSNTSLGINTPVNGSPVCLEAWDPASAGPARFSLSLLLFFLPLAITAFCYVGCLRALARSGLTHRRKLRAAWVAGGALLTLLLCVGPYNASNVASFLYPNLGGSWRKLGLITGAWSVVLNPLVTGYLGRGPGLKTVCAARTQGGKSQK

[3] = target: T1, Free fatty acid receptor 1; experiment: Agonist activity at human GPR40 expressed in HEK293 cells assessed as induction of intracellular calcium mobilization by Fluo-8 dye based FLIPR assay; assay type: functional, cell-based
[4] = target: T1, Free fatty acid receptor 1; experiment: Agonist activity at human GPR40 expressed in CHOK1 cells assessed as induction of Galphaq-mediated IP1 accumulation after 90 mins HTRF assay; assay type: functional, cell-based
[5] = target: T1, Free fatty acid receptor 1; experiment: Partial agonist activity at human GPR40 expressed in CHOK1 cells assessed as induction of GalphaS-mediated cAMP accumulation after 30 mins HTRF assay; assay type: functional, cell-based
Mus musculus [6] = experiment: Antiobesity activity in diet-induced obese C57BL/6J mouse assessed as body weight loss at 1 mg/kg, po once daily for 14 days measured on day 15 (reference value: 3.74 +/- 0.6%); assay type: functional
[7] = Plasma concentration in diet-induced obese mouse at 0.03 mg/kg, po; assay type: ADME, organism-based; details: in vivo
[8] = Genotoxicity in Salmonella typhi by Ames test; assay type: toxicity; details: salmonella enterica subsp. enterica serovar […]
[9] = Plasma concentration in diet-induced obese mouse at 10 mg/kg, po; assay type: ADME, organism-based; details: in vivo
[10] = target: T1, Free fatty acid receptor 1
Description: Displacement of [3H]AM-1638 from human GPR40 expressed in CHOK1 cells assessed as association half life after 60 mins by TopCount method

Mus musculus [11] = experiment: Antiobesity activity in diet-induced obese C57BL/6J mouse assessed as reduction in cumulative food intake administered orally once daily for 14 days; assay type: functional, organism-based
[12] = target: T1, Free fatty acid receptor 1; remark: listed apart in the source
Description: Displacement of [3H]AM-1638 from human GPR40 expressed in CHOK1 cells assessed as dissociation half life after 40 mins by TopCount method

[13] = target: Voltage-gated inwardly rectifying potassium channel KCNH2 (Homo sapiens, UniProt Q12809); experiment: Inhibition of human ERG
Voltage-gated inwardly rectifying potassium channel KCNH2, sequence (Q12809 whole entry): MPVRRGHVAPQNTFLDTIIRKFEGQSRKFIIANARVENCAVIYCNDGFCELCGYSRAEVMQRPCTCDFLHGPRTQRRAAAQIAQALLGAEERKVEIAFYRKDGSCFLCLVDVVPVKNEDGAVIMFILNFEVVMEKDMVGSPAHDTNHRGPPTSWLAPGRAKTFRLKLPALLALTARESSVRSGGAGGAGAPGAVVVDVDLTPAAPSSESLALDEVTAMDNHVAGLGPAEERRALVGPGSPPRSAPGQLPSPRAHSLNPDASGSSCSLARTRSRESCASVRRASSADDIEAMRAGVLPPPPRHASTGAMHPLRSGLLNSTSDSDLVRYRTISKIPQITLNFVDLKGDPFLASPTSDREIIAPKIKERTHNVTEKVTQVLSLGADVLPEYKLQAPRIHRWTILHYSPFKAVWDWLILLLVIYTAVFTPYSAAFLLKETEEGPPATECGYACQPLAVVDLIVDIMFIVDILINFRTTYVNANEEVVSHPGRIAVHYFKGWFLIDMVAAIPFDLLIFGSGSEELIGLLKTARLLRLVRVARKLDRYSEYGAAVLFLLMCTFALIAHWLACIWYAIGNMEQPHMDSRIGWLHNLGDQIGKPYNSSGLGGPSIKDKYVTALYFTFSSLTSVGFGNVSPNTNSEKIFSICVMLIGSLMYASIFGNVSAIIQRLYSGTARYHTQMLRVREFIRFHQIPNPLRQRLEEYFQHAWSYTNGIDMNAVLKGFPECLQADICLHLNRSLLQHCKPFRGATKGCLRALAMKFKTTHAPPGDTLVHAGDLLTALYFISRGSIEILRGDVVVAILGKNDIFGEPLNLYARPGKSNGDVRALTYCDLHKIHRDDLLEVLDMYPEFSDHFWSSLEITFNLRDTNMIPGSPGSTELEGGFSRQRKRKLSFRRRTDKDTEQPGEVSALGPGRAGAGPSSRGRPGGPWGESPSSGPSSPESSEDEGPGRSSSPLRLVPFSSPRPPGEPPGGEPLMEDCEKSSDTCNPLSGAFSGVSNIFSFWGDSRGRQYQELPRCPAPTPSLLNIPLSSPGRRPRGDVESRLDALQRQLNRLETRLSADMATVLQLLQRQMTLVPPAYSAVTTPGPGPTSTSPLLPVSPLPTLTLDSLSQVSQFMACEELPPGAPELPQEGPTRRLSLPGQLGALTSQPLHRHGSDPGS

[14] = target: T1, Free fatty acid receptor 1; experiment: Positive allosteric modulation of human GPR40 expressed in CHOK1 cells assessed as increase in [3H]-(S)-3-Cyclopropyl-3-(3-(((1r,4S)-4-(2-fluoro-5-methoxyphenyl)cyclohexyl)methoxy)phenyl)propanoic acid binding after 60 mins by TopCount method; assay type: cell-based
[15] = Plasma concentration in diet-induced obese mouse at 1 mg/kg, po; assay type: ADME, organism-based; details: in vivo
Mus musculus [16] = experiment: Antiobesity activity in diet-induced obese C57BL/6J mouse assessed as body weight loss at 3 mg/kg, po once daily for 14 days measured on day 15 (reference value: 3.74 +/- 0.6%); assay type: functional
[17] = Drug metabolism in human hepatocytes at 10 uM after 2 hr by LC-MS analysis; assay type: ADME, cell-based, Hepatocyte
[18] = Half life in Sprague-Dawley rat at 2 mg/kg, iv by LC-MS/MS analysis; assay type: ADME, organism-based; details: in vivo
[19] = Plasma concentration in diet-induced obese mouse at 0.1 mg/kg, po; assay type: ADME, organism-based; details: in vivo
[20] = Plasma concentration in diet-induced obese C57BL/6J mouse at 1 mg/kg, po once daily for 14 days measured 24 hrs post last dose; assay type: ADME, organism-based
Mus musculus [21] = experiment: Antiobesity activity in diet-induced obese C57BL/6J mouse assessed as body weight loss at 10 mg/kg, po once daily for 14 days measured on day 15 (reference value: 3.74 +/- 0.6%); assay type: functional
[22] = Half life in Sprague-Dawley rat at 10 mg/kg, po by LC-MS/MS analysis; assay type: ADME, organism-based; details: in vivo
Mus musculus [23] = experiment: Antidiabetic activity in diet-induced obese mouse assessed as reduction in blood glucose excursion administered orally 45 mins prior to glucose challenge and measured up to 120 mins by OGTT; assay type: functional
[24] = Protein binding in human plasma at 10 uM after 6 hrs by equilibrium dialysis method; assay type: ADME, cell-free; details: read-out: PPB
[25] = Plasma concentration in diet-induced obese C57BL/6J mouse at 0.3 mg/kg, po once daily for 14 days measured 24 hrs post last dose; assay type: ADME, organism-based
[26] = Volume of distribution at steady state in Sprague-Dawley rat at 10 mg/kg, po or 2 mg/kg, iv by LC-MS/MS analysis; assay type: ADME, organism-based; details: in vivo, read-out: Vdss
[27] = Cmax in Sprague-Dawley rat at 10 mg/kg, po by LC-MS/MS analysis; assay type: ADME, organism-based; design: dose 10 mg/kg, route oral; details: in vivo
Mus musculus [28] = experiment: Antiobesity activity in diet-induced obese C57BL/6J mouse assessed as body weight loss at 0.3 mg/kg, po once daily for 14 days measured on day 15 (reference value: 3.74 +/- 0.6%); assay type: functional
[29] = Plasma concentration in diet-induced obese mouse at 3 mg/kg, po; assay type: ADME, organism-based; details: in vivo
[30] = Plasma concentration in diet-induced obese C57BL/6J mouse at 10 mg/kg, po once daily for 14 days measured 24 hrs post last dose; assay type: ADME, organism-based
[31] = Plasma concentration in diet-induced obese C57BL/6J mouse at 3 mg/kg, po once daily for 14 days measured 24 hrs post last dose; assay type: ADME, organism-based
Mus musculus [32] = experiment: Antiobesity activity in diet-induced obese C57BL/6J mouse assessed as body weight loss administered orally once daily for 14 days; assay type: functional, organism-based
[33] = Plasma concentration in diet-induced obese C57BL/6J mouse at 30 mg/kg, po once daily for 14 days measured 24 hrs post last dose; assay type: ADME, organism-based
Mus musculus [34] = experiment: Antiobesity activity in diet-induced obese C57BL/6J mouse assessed as body weight loss at 30 mg/kg, po once daily for 14 days measured on day 15 (reference value: 3.74 +/- 0.6%); assay type: functional
[35] = Metabolic stability in human hepatocytes assessed as parent compound remaining at 10 uM after 2 hr by LC-MS analysis; assay type: ADME, cell-based, Hepatocyte
[36] = target: T1, Free fatty acid receptor 1; experiment: Full agonist activity at human GPR40 expressed in CHOK1 cells assessed as induction of GalphaS-mediated cAMP accumulation after 30 mins HTRF assay; assay type: functional, cell-based
Cytochrome P450 [37] = experiment: Induction of CYP450 in human liver microsomes at 10 uM after 0.5 hrs by LC-MS/MS analysis; assay type: ADME
[38] = Clearance in Sprague-Dawley rat at 10 mg/kg, po or 2 mg/kg, iv by LC-MS/MS analysis; assay type: ADME, organism-based; details: in vivo
[39] = Plasma concentration in diet-induced obese mouse at 0.3 mg/kg, po; assay type: ADME, organism-based; details: in vivo
[40] = Oral bioavailability in Sprague-Dawley rat at 10 mg/kg by LC-MS/MS analysis; assay type: ADME, organism-based; details: in vivo
[41] = target: T1, Free fatty acid receptor 1; experiment: Agonist activity at GPR40 in human islets assessed as induction of glucose-stimulated insulin secretion after 1 hr by HTRF assay
Cytochrome P450 [42] = experiment: Inhibition of CYP450 in human liver microsomes at 10 uM after 0.5 hrs by LC-MS/MS analysis; assay type: ADME

Cc1cc(OCCCS(C)(=O)=O)cc(C)c1-c1cccc(COc2ccc3c(c2)OC[C@H]3CC(=O)O)c1
EC50 [1]: 39 nM | Efficacy [2]: 40%

COc1ccc(F)c([C@H]2CC[C@H](COc3cccc([C@H](C4CC4)C(C)(C)C(=O)O)c3)CC2)c1
EC50 [1]: 0.31 nM | EC50 [3]: 0.11 nM | EC50 [4]: 220 nM

COc1ccc(F)c([C@H]2CC[C@H](COc3cccc([C@H](C4CC4)C(F)(F)C(=O)O)c3)CC2)c1
EC50 [1]: 34 nM | EC50 [3]: 16 nM

COc1ccc(F)c([C@H]2CC[C@@H](COc3cccc([C@@H](CC(=O)O)C4CC4)c3)CC2)c1
Activity [5]: Active

COc1ccc(F)c([C@H]2CC[C@H](COc3cccc([C@H](C4CC4)[C@@](C)(F)C(=O)O)c3)CC2)c1
Activity (Mus musculus [6]): 1.05% | concentration [7]: 7.4 nM | Activity [8]: Non-Toxic | concentration [9]: 3830 nM | T1/2 [10]: 3.3 min | Activity (Mus musculus [11]): Dose-dependent effect | T1/2 [12]: 0.333 h | EC50 [1]: 0.34 nM | inhibition (INH) [13]: Not Active | Activity [14]: Active | concentration [15]: 220 nM | Activity (Mus musculus [16]): -2.56% | Drug metabolism [17]: 1% | half-life [18]: 4.3 h | concentration [19]: 22 nM | concentration at 24 h [20]: 340 nM | Activity (Mus musculus [21]): -10.07% | half-life [22]: 7.9 h | Activity (Mus musculus [23]): Dose-dependent effect | minimal effective dose (Mus musculus [23]; po, read-out: MED): 3 mg/kg | fraction unbound at 6 h, 10 µM [24]: < 0.001 | concentration at 24 h [25]: 100 nM | Vd [26]: 3.2 L/kg | Cmax [27]: 495 ng/mL | Activity (Mus musculus [28]): 3.15% | concentration [29]: 870 nM | concentration at 24 h [30]: 7050 nM | concentration at 24 h [31]: 1290 nM | Activity (Mus musculus [32]): Dose-dependent effect | concentration at 24 h [33]: 391000 nM | Activity (Mus musculus [34]): -6.84% | Stability [35]: 73% | EC50 [3]: 0.25 nM | Activity [36]: Active | Activity (Cytochrome P450 [37]): Not Active | clearance [38]: 17 mL/min/kg | EC50 [4]: 3.1 to 5.3 nM | concentration [39]: 87 nM | bioavailability [40]: 92.1% | EC50 [41]: 3.7 nM | inhibition (INH) (Cytochrome P450 [42]): Not Active

COc1ccc(F)c([C@H]2CC[C@H](COc3cccc([C@H](C4CC4)[C@H](C)C(=O)O)c3)CC2)c1
Drug metabolism [17]: 5% | half-life [18]: 4.8 h | half-life [22]: 4.4 h | Vd [26]: 0.9 L/kg | Cmax [27]: 1360 ng/mL | Stability [35]: 45% | clearance [38]: 8.1 mL/min/kg | EC50 [4]: 2 nM | bioavailability [40]: 45.5%
